Like-named read-outs stand apart in the source and are kept apart here.
Key:
[1] = test system: HDAC enzymes (HeLa nuclear extract, mixed-HDAC isoforms); assay: Fluor-de-Lys HDAC activity assay kit, HeLa nuclear extract as source of HDAC enzymes; format: biochemical, human; conditions: compounds at 100 µM
Procedure: The in vitro HDAC inhibitions of the obtained compounds were carried out with the assay kit containing mixed-HDAC isoforms. […] Therefore, the results were not fully related. However, compounds with good binding affinities should have the potential to be specific HDAC inhibitors for each isoform.
The semi-synthetic derivatives were evaluated for their ability to inhibit HDAC enzymes. Inhibition of HDAC activity in vitro was assessed using the Fluor-de-Lys HDAC activity assay kit (Biomol, Enzo Life Sciences International, Inc., Farmingdale, NY, USA). The HeLa nuclear extract provided with the kit was used as a source of HDAC enzymes for the in vitro study. TSA was used as the positive control. The HeLa nuclear extract, substrate, buffer and inhibitors were incubated. Deacetylation of the substrate was performed next by adding a developer to generate a fluorophore. The spectra Max Gemini XPS microplate spectrofluorometer (Molecular Devices, San Jose, CA, USA) was used to measure fluorescence signal with excitation at 360 nm and emission at 460 nm. A decrease in fluorescence signal indicated an inhibition of HDAC activity. Trichostatin A (TSA) was used as a positive control. All experiments were carried out in triplicate.

[2] = test system: Vero cells; assay: MTT assay, non-cancer Vero cells; format: cell-based; conditions: Chlorocebus sabaeus, read-out: IC50 Values (Mean ± SD; n = 3)
Procedure: (§1) The MTT reduction assay was performed with non-cancer (Vero), human cervical cancer (HeLa), human colon cancer (HCT116), human breast adenocarcinoma cancer (MCF-7), and cholangiocarcinoma (H-69 […], KKU-100 and KKU-M213B) cell lines according to the previously described method. Briefly, cells were seeded in 96-well plates. The next day, cells were exposed to the selected compounds at various concentrations and incubated for 24, 48 and 72 h. After incubation, the culture medium was exchanged with 110 µL of MTT (0.5 mg/mL in PBS medium) and further incubated for 2 h. The amount of MTT formazan product was determined after dissolving in DMSO by measuring its absorbance with a microplate reader (Bio-Rad Laboratories, Hercules, CA, USA) at a test wavelength of 550 nm and a reference wavelength of 655 nm. The cell viability was expressed as a percentage of the viable cells of control culture conditions, and the IC50 values of each group were calculated.

[3] = test system: human cervical cancer (HeLa) cells; assay: MTT assay, HeLa cells; format: cell-based; conditions: for IC50: Homo sapiens, read-out: IC50 Values (Mean ± SD; n = 3), HeLa cells
Procedure: as §1

[4] = test system: human colon cancer (HCT116) cells; assay: MTT assay, HCT116 cells; format: cell-based; conditions: Homo sapiens, HCT-116, read-out: IC50 Values (Mean ± SD; n = 3)
Procedure: as §1

[5] = test system: human breast adenocarcinoma cancer (MCF-7) cells; assay: MTT assay, MCF-7 cells; format: cell-based; conditions: Homo sapiens, MCF7, read-out: IC50 Values (Mean ± SD; n = 3)
Procedure: as §1

[6] = test system: H-69 cells; assay: MTT assay, H-69 cells; format: cell-based; conditions: Homo sapiens, NCI-H69, read-out: IC50 Values (Mean ± SD; n = 3)
Procedure: as §1

[7] = test system: cholangiocarcinoma KKU-100 cells; assay: MTT assay, KKU-100 cells; format: cell-based, human; conditions: Homo sapiens, KKU100, read-out: IC50 Values (Mean ± SD; n = 3)
Procedure: as §1

[8] = test system: cholangiocarcinoma KKU-M213B cells; assay: MTT assay, KKU-M213B cells; format: cell-based, human; conditions: Homo sapiens, read-out: IC50 Values (Mean ± SD; n = 3)
Procedure: as §1

`CCCCCC1CC(CCc2ccc(O)c(OC)c2)=NN1c1cccc(Cl)c1` (centres unmarked) [Compound 5g, 4-(2-(1-(3-chlorophenyl)-5-pentyl-4,5-dihydro-1H-pyrazol-3-yl)ethyl)-2-methoxyphenol] was tested, and the “%HDAC Inhibition” value [1] was 60%.

In the case of “10-(4-Hydroxy-3-methoxyphenyl)-6-((2-mercaptophenyl)amino)decan-8-one [Compound 6a]”, the “%HDAC Inhibition” value [1] is reported as 54%.

With `CCCCCC1CC(CCc2ccc(O)c(OC)c2)=NN1c1ccc(OC)cc1` (centres unmarked) [Compound 5d, 2-methoxy-4-(2-(1-(4-methoxyphenyl)-5-pentyl-4,5-dihydro-1H-pyrazol-3-yl)ethyl) phenol] the “%HDAC Inhibition” value [1] was 67%.

`CCCCCC1CC(CCc2ccc(O)c(OC)c2)=NN1c1ccc(C(=O)O)cc1` (centres unmarked) [Compound 5k, 4-(3-(4-hydroxy-3-methoxyphenethyl)-5-pentyl-4,5-dihydro-1H-pyrazol-1-yl)benzo ic acid] was tested, and the “%HDAC Inhibition” value [1] was 83%, the IC50 ([2]; 24 h) was 143 ± 2.15 µM and the IC50 ([2]; 48 h) was 128 ± 1.73 µM. The IC50 ([2]; 72 h) was 116.7 ± 1.13 µM, the “selectivity towards HeLa cells than non-cancer cells” value ([3]; HeLa versus non-cancer cells) was “about 5 fold” and the IC50 ([3]; 24 h) was 83.8 ± 1.83 µM. For the same compound, the IC50 ([3]; 48 h) was 56.8 ± 1.24 µM, the IC50 ([3]; 72 h) was 23.1 ± 0.76 µM and the IC50 ([4]; 24 h) was 94.4 ± 2.7 µM. For the same compound, the IC50 ([4]; 48 h) was 39.2 ± 1.06 µM, the IC50 ([4]; 72 h) was 34.5 ± 0.66 µM and the IC50 ([5]; 24 h) was 56.6 ± 3.21 µM. It also gave an IC50 ([5]; 48 h) of 50.5 ± 1.64 µM, an IC50 ([5]; 72 h) of 31.8 ± 0.88 µM and an IC50 ([6]; 24 h) of 68.7 ± 1.15 µM. It also gave an IC50 ([6]; 48 h) of 52.7 ± 1.73 µM, an IC50 ([6]; 72 h) of 47.6 ± 0.73 µM and an IC50 ([7]; 24 h) of 68.1 ± 1.98 µM. It also gave an IC50 ([7]; 48 h) of 38.9 ± 0.65 µM, an IC50 ([7]; 72 h) of 26.99 ± 0.08 µM and an IC50 ([8]; 24 h) of 63.2 ± 2.52 µM. The IC50 ([8]; 48 h) was 35.7 ± 1.4 µM and the IC50 ([8]; 72 h) was 29.1 ± 1.17 µM.

For `CCCCCC1CC(CCc2ccc(O)c(OC)c2)=NN1c1ccccc1F` (centres unmarked) [Compound 5e, 4-(2-(1-(2-fluorophenyl)-5-pentyl-4,5-dihydro-1H-pyrazol-3-yl)ethyl)-2-methoxyphenol], the “%HDAC Inhibition” value [1] was 54%.

For `CCCCC/C=C/C(CCc1ccc(O)c(OC)c1)=N\Nc1nc2ccccc2s1` [Compound 4d, 4-((3Z,4E)-3-(2-(Benzo[d]thiazol-2-yl)hydrazono)dec-4-en-1-yl)-2-methoxyphenol], the “%HDAC Inhibition” value [1] was 80%, the IC50 ([2]; 24 h) was 170 ± 6.98 µM and the IC50 ([2]; 48 h) was 70 ± 1.27 µM. It also gave an IC50 ([2]; 72 h) of 60.1 ± 1.69 µM, an IC50 ([3]; 24 h) of 51.6 ± 1.92 µM and an IC50 ([3]; 48 h) of 37.2 ± 1.33 µM. For the same compound, the IC50 ([3]; 72 h) was 33.7 ± 0.76 µM, the IC50 ([4]; 24 h) was 40.1 ± 1.47 µM and the IC50 ([4]; 48 h) was 28.3 ± 0.79 µM. It also gave an IC50 ([4]; 72 h) of 26.63 ± 0.15 µM, an IC50 ([5]; 24 h) of 104 ± 3.17 µM and an IC50 ([5]; 48 h) of 57.8 ± 2.37 µM. For the same compound, the IC50 ([5]; 72 h) was 25.5 ± 1.15 µM, the IC50 ([6]; 24 h) was 51.4 ± 1.51 µM and the IC50 ([6]; 48 h) was 41.4 ± 0.61 µM. It also gave an IC50 ([6]; 72 h) of 29.4 ± 0.89 µM, an IC50 ([7]; 24 h) of 41.6 ± 1.24 µM and an IC50 ([7]; 48 h) of 31.5 ± 0.8 µM. For the same compound, the IC50 ([7]; 72 h) was 25.75 ± 0.2 µM, the IC50 ([8]; 24 h) was 39.84 ± 0.29 µM and the IC50 ([8]; 48 h) was 20.6 ± 0.18 µM. For the same compound, the IC50 ([8]; 72 h) was 18.2 ± 0.75 µM.

`CCCCCC1CC(CCc2ccc(O)c(OC)c2)=NN1c1ccccc1OC` (centres unmarked) [Compound 5c, 2-methoxy-4-(2-(1-(2-methoxyphenyl)-5-pentyl-4,5-dihydro-1H-pyrazol-3-yl)ethyl) phenol] was tested, and the “%HDAC Inhibition” value [1] was 52%.

With `CCCCC/C=C/C(CCc1ccc(O)c(OC)c1)=N\Nc1ccccn1` [Compound 4c, 2-Methoxy-4-((3Z,4E)-3-(2-(pyridin-2-yl)hydrazono)dec-4-en-1-yl)phenol] the “%HDAC Inhibition” value [1] was 80%, the IC50 ([2]; 24 h) was 69.5 ± 3.94 µM and the IC50 ([2]; 48 h) was 49.31 ± 0.18 µM. It also gave an IC50 ([2]; 72 h) of 45.2 ± 0.49 µM, an IC50 ([3]; 24 h) of 49.3 ± 1.27 µM and an IC50 ([3]; 48 h) of 33.4 ± 1.09 µM. For the same compound, the IC50 ([3]; 72 h) was 29.3 ± 0.88 µM, the IC50 ([4]; 24 h) was 20.2 ± 0.46 µM and the IC50 ([4]; 48 h) was 18.4 ± 0.32 µM. For the same compound, the IC50 ([4]; 72 h) was 17.2 ± 0.23 µM, the IC50 ([5]; 24 h) was 46.4 ± 1.3 µM and the IC50 ([5]; 48 h) was 39.4 ± 0.68 µM. It also gave an IC50 ([5]; 72 h) of 27.1 ± 0.47 µM, an IC50 ([6]; 24 h) of 40 ± 1.57 µM and an IC50 ([6]; 48 h) of 30.6 ± 0.82 µM. For the same compound, the IC50 ([6]; 72 h) was 28.7 ± 0.36 µM, the IC50 ([7]; 24 h) was 36.8 ± 0.89 µM and the IC50 ([7]; 48 h) was 29.7 ± 0.96 µM. For the same compound, the IC50 ([7]; 72 h) was 19.2 ± 0.41 µM, the IC50 ([8]; 24 h) was 39 ± 0.27 µM and the IC50 ([8]; 48 h) was 28.98 ± 0.26 µM. The IC50 ([8]; 72 h) was 25.9 ± 0.71 µM.

In the case of `CCCCCC1CC(CCc2ccc(O)c(OC)c2)=Nc2ccccc2N1` (centres unmarked) [Compound 7, 2-Methoxy-4-(2-(2-pentyl-2,3-dihydro-1H-benzo[b][1,4]diazepin-4-yl)ethyl)phenol], the “%HDAC Inhibition” value [1] is reported as 63%.

`CCCCC/C=C/C(CCc1ccc(O)c(OC)c1)=N\Nc1ccc(C(=O)O)cc1` [Compound 4b, 4-(2-((3Z,4E)-1-(4-Hydroxy-3-methoxyphenyl)dec-4-en-3-ylidene)hydrazinyl)benzo-ic acid] was tested, and the “%HDAC Inhibition” value [1] was 73%.

From article PMC9144829, “Histone Deacetylase Inhibitory Activity and Antiproliferative Potential of New [6]-Shogaol Derivatives” (Molecules, 2022)
